According to ChEMBL document CHEMBL1275601, “Striking species difference in the contribution of concentrative nucleoside transporter 2 to nucleoside uptake between mouse and rat hepatocytes” (Antimicrob Agents Chemother, 2010):
Calls of active or inactive are those of the source. The rule behind the calls is not given here.

Columns and labels:
Assay type in all cases: cell-based
[1] = biological target: T1, Sodium/nucleoside cotransporter 1 (Rattus norvegicus) (UniProt Q62674); assay: Transport through CNT1 in rat hepatocytes by oil filtration assay in presence of sodium ions in Kreb-henseleit buffer containing 100 uM NBMPR and 1 mM uridine; details: Hepatocyte
T1 sequence (whole entry): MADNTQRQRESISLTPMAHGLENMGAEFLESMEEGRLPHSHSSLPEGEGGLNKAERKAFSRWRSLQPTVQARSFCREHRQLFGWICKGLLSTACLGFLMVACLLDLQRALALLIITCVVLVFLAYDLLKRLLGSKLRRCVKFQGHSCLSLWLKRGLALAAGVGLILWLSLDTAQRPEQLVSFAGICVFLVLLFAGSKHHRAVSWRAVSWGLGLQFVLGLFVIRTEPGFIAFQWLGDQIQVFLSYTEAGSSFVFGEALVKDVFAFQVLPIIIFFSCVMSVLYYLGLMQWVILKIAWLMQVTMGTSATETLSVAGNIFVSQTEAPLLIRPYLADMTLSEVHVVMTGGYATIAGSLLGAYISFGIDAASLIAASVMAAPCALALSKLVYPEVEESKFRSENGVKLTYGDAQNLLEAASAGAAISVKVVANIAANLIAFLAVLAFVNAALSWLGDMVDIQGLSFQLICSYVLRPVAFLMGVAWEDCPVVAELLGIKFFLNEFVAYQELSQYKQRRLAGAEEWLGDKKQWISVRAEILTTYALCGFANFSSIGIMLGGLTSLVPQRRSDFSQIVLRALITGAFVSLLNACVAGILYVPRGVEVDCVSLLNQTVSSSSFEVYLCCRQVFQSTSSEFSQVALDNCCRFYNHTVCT

[2] = biological target: T2, Equilibrative nucleoside transporter 1 (Mus musculus) (UniProt Q9JIM1); assay: Transport through ENT1 in mouse hepatocytes by oil filtration assay in presence of sodium ions in Kreb-henseleit buffer; details: Hepatocyte
T2 sequence (whole entry): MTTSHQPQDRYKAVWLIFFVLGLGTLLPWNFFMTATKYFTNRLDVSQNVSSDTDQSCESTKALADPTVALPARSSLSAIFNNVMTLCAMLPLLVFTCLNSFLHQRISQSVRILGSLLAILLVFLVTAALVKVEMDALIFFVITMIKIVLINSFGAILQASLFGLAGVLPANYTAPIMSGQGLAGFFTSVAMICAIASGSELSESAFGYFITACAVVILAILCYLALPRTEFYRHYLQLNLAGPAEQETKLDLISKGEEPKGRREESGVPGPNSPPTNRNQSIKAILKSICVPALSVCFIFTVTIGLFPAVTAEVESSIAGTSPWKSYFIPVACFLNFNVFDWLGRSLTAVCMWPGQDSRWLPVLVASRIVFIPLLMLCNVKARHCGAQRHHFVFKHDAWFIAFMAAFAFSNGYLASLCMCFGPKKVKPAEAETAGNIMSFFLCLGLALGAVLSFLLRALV

[3] = biological target: T3, Sodium/nucleoside cotransporter 2 (Rattus norvegicus) (UniProt Q62773); assay: Transport through CNT2 in rat hepatocytes by oil filtration assay in presence of sodium ions in Kreb-henseleit buffer containing 100 uM NBMPR and 1 mM uridine; details: Hepatocyte
T3 sequence (whole entry): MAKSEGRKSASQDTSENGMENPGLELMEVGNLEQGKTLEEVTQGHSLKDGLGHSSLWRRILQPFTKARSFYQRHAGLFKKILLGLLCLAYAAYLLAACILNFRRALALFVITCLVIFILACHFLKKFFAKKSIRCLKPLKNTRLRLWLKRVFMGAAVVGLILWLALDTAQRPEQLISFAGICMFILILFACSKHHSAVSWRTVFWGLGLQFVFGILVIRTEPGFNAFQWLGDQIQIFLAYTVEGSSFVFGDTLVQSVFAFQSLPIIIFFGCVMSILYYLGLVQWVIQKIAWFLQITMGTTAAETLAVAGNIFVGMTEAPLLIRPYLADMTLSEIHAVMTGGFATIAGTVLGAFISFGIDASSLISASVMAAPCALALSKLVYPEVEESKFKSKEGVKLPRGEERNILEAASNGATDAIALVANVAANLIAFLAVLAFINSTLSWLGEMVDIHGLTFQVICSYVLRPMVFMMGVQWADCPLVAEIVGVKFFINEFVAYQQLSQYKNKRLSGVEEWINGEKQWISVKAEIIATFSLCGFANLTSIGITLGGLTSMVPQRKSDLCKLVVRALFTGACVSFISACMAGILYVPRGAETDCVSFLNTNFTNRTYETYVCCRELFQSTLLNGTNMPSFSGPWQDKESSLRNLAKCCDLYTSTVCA

[4] = biological target: T4, Equilibrative nucleoside transporter 2 (Rattus norvegicus) (UniProt O54699); assay: Transport through ENT2 in rat hepatocytes by oil filtration assay; details: Hepatocyte
T4 sequence (whole entry): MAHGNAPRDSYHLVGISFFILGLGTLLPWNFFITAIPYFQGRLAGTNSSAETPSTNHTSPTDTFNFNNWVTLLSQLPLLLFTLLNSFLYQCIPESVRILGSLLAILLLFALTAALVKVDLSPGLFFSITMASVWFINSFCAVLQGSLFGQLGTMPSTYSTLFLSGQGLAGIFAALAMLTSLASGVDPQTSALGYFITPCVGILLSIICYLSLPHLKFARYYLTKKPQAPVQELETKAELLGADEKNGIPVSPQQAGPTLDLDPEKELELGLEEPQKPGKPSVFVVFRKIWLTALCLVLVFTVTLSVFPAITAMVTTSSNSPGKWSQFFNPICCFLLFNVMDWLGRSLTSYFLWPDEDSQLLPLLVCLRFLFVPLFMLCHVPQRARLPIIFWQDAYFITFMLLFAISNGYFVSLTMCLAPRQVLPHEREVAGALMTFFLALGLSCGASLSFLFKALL

[5] = biological target: T3, Sodium/nucleoside cotransporter 2 (Rattus norvegicus); assay: Transport through CNT2 in rat hepatocytes by oil filtration assay; details: Hepatocyte
[6] = biological target: T5, Equilibrative nucleoside transporter 1 (Rattus norvegicus) (UniProt O54698); assay: Transport through ENT1 in rat hepatocytes by oil filtration assay; details: Hepatocyte
T5 sequence (whole entry): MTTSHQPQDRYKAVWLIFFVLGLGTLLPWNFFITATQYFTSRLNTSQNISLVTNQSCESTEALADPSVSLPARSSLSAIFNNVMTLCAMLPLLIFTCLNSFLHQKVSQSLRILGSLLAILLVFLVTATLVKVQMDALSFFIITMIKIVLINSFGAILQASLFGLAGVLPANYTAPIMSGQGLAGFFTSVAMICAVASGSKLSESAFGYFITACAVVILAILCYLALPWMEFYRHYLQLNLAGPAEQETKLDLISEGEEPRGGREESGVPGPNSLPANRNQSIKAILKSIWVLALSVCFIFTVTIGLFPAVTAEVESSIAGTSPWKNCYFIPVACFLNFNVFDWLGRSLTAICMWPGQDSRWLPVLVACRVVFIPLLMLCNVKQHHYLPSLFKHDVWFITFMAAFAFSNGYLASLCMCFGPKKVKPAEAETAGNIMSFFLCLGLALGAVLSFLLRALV

Hepatocyte = assay: Transport through CNT3 in rat hepatocytes by oil filtration assay in presence of sodium ions in Kreb-henseleit buffer containing 100 uM NBMPR and thymidine
[7] = biological target: T1, Sodium/nucleoside cotransporter 1 (Rattus norvegicus); assay: Transport through CNT1 in rat hepatocytes by oil filtration assay; details: Hepatocyte

Row | Structure (SMILES) | Activity [1] | Activity [2] | Activity [3] | Activity [4] | Activity [5] | Activity [6] | Activity (Hepatocyte) | Activity [7]
1 | Nc1ncnc2c1ncn2[C@@H]1O[C@H](CO)[C@@H](O)[C@H]1O | inactive | inactive | inactive | inactive | inactive | inactive | inactive | inactive
2 | NC(=O)c1ncn([C@@H]2O[C@H](CO)[C@@H](O)[C@H]2O)n1 | inactive | inactive | inactive | Active | Active | Active | inactive | Active
